Measurements from patent US20170190671A1, “BIS(ARYL)CATECHOL DERIVATIVES AS HERBICIDES” (E I DU PONT DE NEMOURS AND COMPANY, priority 2014, published 2017).

Assays:
Assay in all cases: Test C preemergence
Format in all cases: in vivo
[1] = tested on: blackgrass (Alopecurus myosuroides); details: Alopecurus myosuroides, pre-emergence, 336 h, preemergence, scale 0 to 100, read-out: Plant response rating, Blackgrass
Procedure, shortened: (§1)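 Greenhouse test, preemergence on seeded soil or postemergence on 1- to 4-leaf plants. Response is a visual 0-100 rating versus controls, taken 13-15 days after treatment.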

[2] = tested on: johnsongrass (Sorghum halepense); details: Sorghum halepense, pre-emergence, 336 h, preemergence, scale 0 to 100, read-out: Plant response rating, Johnsongrass
Procedure, shortened: as §1

[3] = tested on: ragweed (common ragweed, Ambrosia elatior); details: Ambrosia artemisiifolia, pre-emergence, 336 h, preemergence, scale 0 to 100, read-out: Plant response rating, Ragweed
Procedure, shortened: as §1

[4] = tested on: barnyardgrass (Echinochloa crus-galli); details: Echinochloa crus-galli, pre-emergence, preemergence, scale 0 to 100, read-out: Plant response rating, Barnyardgrass
Procedure, shortened: as §1

corn (Zea mays) = details: Zea mays, pre-emergence, 336 h, preemergence, scale 0 to 100
Procedure, shortened: as §1

[5] = tested on: winter wheat (Triticum aestivum); details: Triticum aestivum, pre-emergence, 336 h, preemergence, scale 0 to 100, read-out: Plant response rating, Wheat
Procedure, shortened: as §1

[6] = tested on: velvetleaf (Abutilon theophrasti); details: Abutilon theophrasti, pre-emergence, preemergence, scale 0 to 100, read-out: Plant response rating, Velvetleaf
Procedure, shortened: as §1

[7] = tested on: large (Lg) crabgrass (Digitaria sanguinalis); details: Digitaria sanguinalis, pre-emergence, 336 h, preemergence, scale 0 to 100, read-out: Plant response rating, Crabgrass, Large
Procedure, shortened: as §1

soybean (Glycine max) = details: Glycine max, pre-emergence, preemergence, scale 0 to 100, read-out: Plant response rating, Soybean
Procedure, shortened: as §1

[8] = tested on: pigweed (Amaranthus retroflexus); details: Amaranthus retroflexus, pre-emergence, 336 h, preemergence, scale 0 to 100, read-out: Plant response rating, Pigweed
Procedure, shortened: as §1

[9] = tested on: lambsquarters (Chenopodium album); details: Chenopodium album, pre-emergence, 336 h, preemergence, scale 0 to 100, read-out: Plant response rating, Lambsquarters
Procedure, shortened: as §1

[10] = tested on: giant foxtail (Setaria faberii); details: Setaria faberi, pre-emergence, 336 h, preemergence, scale 0 to 100, read-out: Plant response rating, Foxtail, Giant
Procedure, shortened: as §1

[11] = tested on: Italian ryegrass (Lolium multiflorum); details: Lolium multiflorum, pre-emergence, 336 h, preemergence, scale 0 to 100, read-out: Plant response rating, Ryegrass, Italian
Procedure, shortened: as §1

[12] = tested on: yellow nutsedge (Cyperus esculentus); details: Cyperus, pre-emergence, 336 h, preemergence, scale 0 to 100, read-out: Plant response rating, Nutsedge, Yellow
Procedure, shortened: as §1

Fc1cnc(Oc2c(Br)cccc2Oc2ncc(Cl)cn2)nc1 [Compound 22]
pest or weed control at 31 g/ha ([1]; 31 g ai/ha): 10%
pest or weed control at 62 g/ha ([1]; 62 g ai/ha): 60%
pest or weed control at 125 g/ha ([1]; 125 g ai/ha): 90%
pest or weed control at 31 g/ha ([2]; 31 g ai/ha): 10%
pest or weed control at 62 g/ha ([2]; 62 g ai/ha): 30%
pest or weed control at 125 g/ha ([2]; 125 g ai/ha): 70%
pest or weed control at 31 g/ha ([3]; 31 g ai/ha): 55%
pest or weed control at 62 g/ha ([3]; 62 g ai/ha): 85%
pest or weed control at 125 g/ha ([3]; 125 g ai/ha): 90%
pest or weed control at 250 g/ha ([3]; 250 g ai/ha): 95%
pest or weed control at 31 g/ha ([4]; 31 g ai/ha): 60%
pest or weed control at 62 g/ha ([4]; 62 g ai/ha): 95%
pest or weed control at 125 g/ha ([4]; 125 g ai/ha): 100%
pest or weed control at 250 g/ha ([4]; 250 g ai/ha): 100%
Corn plant response rating (crop injury, 0 = no effect, 100 = complete kill) at 31 g/ha (corn (Zea mays); 31 g ai/ha): 10%
Corn plant response rating (crop injury, 0 = no effect, 100 = complete kill) at 62 g/ha (corn (Zea mays); 62 g ai/ha): 40%
Corn plant response rating (crop injury, 0 = no effect, 100 = complete kill) at 125 g/ha (corn (Zea mays); 125 g ai/ha): 80%
plant injury at 31 g/ha ([5]; 31 g ai/ha): 0%
plant injury at 62 g/ha ([5]; 62 g ai/ha): 15%
plant injury at 125 g/ha ([5]; 125 g ai/ha): 20%
plant injury at 250 g/ha ([5]; 250 g ai/ha): 90%
pest or weed control at 31 g/ha ([6]; 31 g ai/ha): 70%
pest or weed control at 62 g/ha ([6]; 62 g ai/ha): 98%
pest or weed control at 125 g/ha ([6]; 125 g ai/ha): 100%
pest or weed control at 250 g/ha ([6]; 250 g ai/ha): 100%
pest or weed control at 31 g/ha ([7]; 31 g ai/ha): 100%
pest or weed control at 62 g/ha ([7]; 62 g ai/ha): 100%
pest or weed control at 125 g/ha ([7]; 125 g ai/ha): 100%
plant injury at 31 g/ha (soybean (Glycine max); 31 g ai/ha): 60%
plant injury at 62 g/ha (soybean (Glycine max); 62 g ai/ha): 70%
plant injury at 125 g/ha (soybean (Glycine max); 125 g ai/ha): 90%
plant injury at 250 g/ha (soybean (Glycine max); 250 g ai/ha): 95%
pest or weed control at 31 g/ha ([8]; 31 g ai/ha): 100%
pest or weed control at 62 g/ha ([8]; 62 g ai/ha): 100%
pest or weed control at 125 g/ha ([8]; 125 g ai/ha): 100%
pest or weed control at 31 g/ha ([9]; 31 g ai/ha): 75%
pest or weed control at 62 g/ha ([9]; 62 g ai/ha): 100%
pest or weed control at 125 g/ha ([9]; 125 g ai/ha): 100%
pest or weed control at 31 g/ha ([10]; 31 g ai/ha): 100%
pest or weed control at 62 g/ha ([10]; 62 g ai/ha): 100%
pest or weed control at 125 g/ha ([10]; 125 g ai/ha): 100%
pest or weed control at 31 g/ha ([11]; 31 g ai/ha): 5%
pest or weed control at 62 g/ha ([11]; 62 g ai/ha): 30%
pest or weed control at 125 g/ha ([11]; 125 g ai/ha): 80%
pest or weed control at 250 g/ha ([11]; 250 g ai/ha): 90%
pest or weed control at 31 g/ha ([12]; 31 g ai/ha): 0%
pest or weed control at 62 g/ha ([12]; 62 g ai/ha): 20%
pest or weed control at 125 g/ha ([12]; 125 g ai/ha): 60%
